According to patent US7001905B2, “Substituted diarylamines as MEK inhibitors” (Warner-Lambert Company, priority 2000, dated 2006):

Target: T1, MEK (Homo sapiens, UniProt Q02750)
T1 construct: no tag is given for the 2D mutant
Test: in vitro MEK assay
Format: biochemical
Summary of the method: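 GST-MEK (10 μg) or activated GST-MEK-2E (S218E/S222E, 5 μg) phosphorylates kinase-dead GST-MAPK-KA (K71A, 5 μg) with 10 μM [γ-32P]ATP in 50 mM Tris pH 7.5 for 15 min at 30 °C. Read-out: SDS-PAGE, autoradiography and scintillation counting of excised bands.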

T1 sequence (Q02750 whole entry S218D/S222D, form open): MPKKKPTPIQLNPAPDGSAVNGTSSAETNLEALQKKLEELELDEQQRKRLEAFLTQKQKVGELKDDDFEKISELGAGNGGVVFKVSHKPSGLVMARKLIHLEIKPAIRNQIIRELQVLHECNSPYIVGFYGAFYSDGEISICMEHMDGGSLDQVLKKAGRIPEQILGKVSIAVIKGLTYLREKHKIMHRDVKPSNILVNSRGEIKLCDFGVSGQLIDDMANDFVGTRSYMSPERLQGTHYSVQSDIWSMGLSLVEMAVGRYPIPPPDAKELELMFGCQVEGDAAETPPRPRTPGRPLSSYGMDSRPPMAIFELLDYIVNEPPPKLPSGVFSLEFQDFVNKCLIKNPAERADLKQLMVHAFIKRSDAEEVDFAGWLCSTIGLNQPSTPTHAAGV

Compound	IC50 [nM]	in vitro MEK assay: % inhibition @ 1 μM [%]
Cc1cc(I)ccc1Nc1c(C(=O)O)cc(C(=O)N2CCCC(O)C2)c(F)c1F (stereo not shown) [Example 75]	465	92
Cc1cc(I)ccc1Nc1c(C(=O)O)cc(C(=O)N2CCCC(CO)C2)c(F)c1F (stereo not shown) [Example 76, 3,4-Difluoro-5-[1-(3-hydroxymethyl-piperidin-1-yl)-methanoyl]-2-(4-iodo-2-methyl-phenylamino)-benzoic acid]	300	88
Cc1cc(I)ccc1Nc1c(C(=O)O)cc(C(=O)N2CCC(O)C2)c(F)c1F (stereo not shown) [Example 77, 3,4-Difluoro-5-[1-(3-hydroxy-pyrrolidin-1-yl)-methanoyl]-2-(4-iodo-2-methyl-phenylamino)-benzoic acid]	880	83
Cc1cc(I)ccc1Nc1c(C(=O)O)cc(C(=O)N2CCC(N3CCCC3)CC2)c(F)c1F [Example 78, 3,4-Difluoro-2-(4-iodo-2-methyl-phenylamino)-5-[1-(4-pyrrolidin-1-yl-piperidin-1-yl)-methanoyl]-benzoic acid]		33
Cc1cc(I)ccc1Nc1c(C(=O)O)cc(C(=O)NCCN2CCOCC2)c(F)c1F [Example 79, 4,5-Difluoro-6-(4-iodo-2-methyl-phenylamino)-N-(2-morpholin-4-yl-ethyl)-isophthalamic acid]	1500	54
Cc1cc(I)ccc1Nc1c(C(=O)O)cc(C(=O)NCc2ccncc2)c(F)c1F [Example 80, 4,5-Difluoro-6-(4-iodo-2-methyl-phenylamino)-N-pyridin4-ylmethyl-isophthalamic acid]	1700	71
Cc1cc(I)ccc1Nc1c(C(=O)O)cc(C(=O)N2CCC(O)CC2)c(F)c1F [Example 81, 3,4-Difluoro-5-[1-(4-hydroxy-piperidin-1-yl)-methanoyl]-2-(4-iodo-2-methyl-phenylamino)-benzoic acid]	1800	86
Cc1cc(I)ccc1Nc1c(C(=O)O)cc(C(=O)N2CCC(CCO)CC2)c(F)c1F [Example 83, 3,4-Difluoro-5-{1-[4-(2-hydroxy-ethyl)-piperidin-1-yl]-methanoyl}-2-(4-iodo-2-methyl-phenylamino)-benzoic acid]	150	90
CCn1nccc1NC(=O)c1cc(C(=O)O)c(Nc2ccc(I)cc2C)c(F)c1F [Example 84, N-(2-Ethyl-2H-pyrazol-3-yl)-4,5-difluoro-6-(4-iodo-2-methyl-phenylamino)-isophthalamic acid]	960	79
Cc1cc(I)ccc1Nc1c(C(=O)O)cc(C(=O)Nc2ccc(Cl)nc2)c(F)c1F [Example 85, N-(6-Chloro-pyridin-3-yl)-4,5-difluoro-6-(4-iodo-2-methyl-phenylamino)-isophthalamic acid]	970	90
Cc1cc(I)ccc1Nc1c(C(=O)O)cc(C(=O)Nc2ccc3cn[nH]c3c2)c(F)c1F [Example 86, 4,5-Difluoro-N-(1H-indazol-6-yl)-6-(4-iodo-2-methyl-phenylamino)-isophthalamic acid]	1100	77
Cc1cc(I)ccc1Nc1c(C(=O)O)cc(C(=O)NC(C)CO)c(F)c1F (stereo not shown) [Example 87, 4,5-Difluoro-N-(2-hydroxy-1-methyl-ethyl)-6-(4-iodo-2-methyl-phenylamino)-isophthalamic acid]	2200	66
Cc1cc(I)ccc1Nc1c(C(=O)O)cc(C(=O)NCCc2c[nH]cn2)c(F)c1F [Example 88, 4,5-Difluoro-N-[2-(1H-imidazol-4-yl)-ethyl]-6-(4-iodo-2-methyl-phenylamino)-isophthalamic acid]	1400	60
Cc1cc(I)ccc1Nc1c(C(=O)O)cc(C(=O)N2CCOCC2)c(F)c1F [Example 89, 3,4-Difluoro-2-(4-iodo-2-methyl-1-phenylamino)-5-(1-morpholin-4-yl-methanoyl)-benzoic acid]		89
Cc1cc(I)ccc1Nc1c(C(=O)O)cc(C(=O)NCCCn2ccnc2)c(F)c1F [Example 90, 4,5-Difluoro-N-(3-imidazol-1-yl-propyl)-6-(4-iodo-2-methyl-phenylamino)-isophthalamic acid]		59
Cc1cc(I)ccc1Nc1c(C(=O)O)cc(C(=O)NCCCN2CCOCC2)c(F)c1F [Example 91, 4,5-Difluoro-6-(4-iodo-2-methyl-phenylamino)-N-(3-morpholin4-yl-propyl)-isophthalamic acid]		58
Cc1cc(I)ccc1Nc1c(C(=O)O)cc(C(=O)Nc2ccc(N(C)C)cc2)c(F)c1F [Example 92, N-(4-Dimethylamino-phenyl)-4,5-difluoro-6-(iodo-methyl-phenylamino)-isophthalamic acid]		80
CCN1CCN(C(=O)c2cc(C(=O)O)c(Nc3ccc(I)cc3C)c(F)c2F)CC1 [Example 93, 5-[1-(4-Ethyl-piperazin-1-yl)-methanoyl]-3,4-difluoro-2-(4-iodo-2-methyl-phenylamino)-benzoic acid]		70
COc1ccc(N(C)C(=O)c2cc(C(=O)O)c(Nc3ccc(I)cc3C)c(F)c2F)cc1 [Example 94, 4,5-Difluoro-6-(4-iodo-2-methyl-phenylamino)-N-(4-methoxy-phenyl)-N-methyl-isophthalamic acid]		92
Cc1cc(I)ccc1Nc1c(C(=O)O)cc(C(=O)N(C)CCc2c[nH]c3ccccc23)c(F)c1F [Example 95, 4,5-Difluoro-N-[2-(1H-indol-3-yl)-ethyl]-6-(4-iodo-2-methyl-phenylamino)-N-methyl-isophthalamic acid]		77
Cc1cc(I)ccc1Nc1c(C(=O)O)cc(C(=O)Nc2ccc(S(N)(=O)=O)cc2)c(F)c1F [Example 96, 4,5-Difluoro-6-(4-iodo-2-methyl-phenylamino)-N-(4-sulfamoyl-phenyl)-isophthalamic acid]		85
Cc1cc(I)ccc1Nc1c(C(=O)O)cc(C(=O)NCC2CCCO2)c(F)c1F (stereo not shown) [Example 97, 4,5-Difluoro-6-(4-iodo-2-methyl-phenylamino)-N-(tetrahydro-furan-2-ylmethyl)-isophthalamic acid]		81
Cc1cc(I)ccc1Nc1c(C(=O)O)cc(C(=O)N2CCSC2)c(F)c1F [Example 98, 3,4-Difluoro-2-(4-iodo-2-methyl-phenylamino)-5-(1-thiazolidin-3-yl-methanoyl)-benzoic acid]	87	86
Cc1cc(I)ccc1Nc1c(C(=O)O)cc(C(=O)N2CCSCC2)c(F)c1F [Example 99]	150	82
Cc1cc(I)ccc1Nc1c(C(=O)O)cc(C(=O)N2CCCC(O)C2)c(F)c1F (stereo not shown) [Example 101, 3,4-Difluoro-5-[1-(3-hydroxy-piperidin-1-yl)-methanoyl]-2-(4-iodo-2-methyl-phenylamino)-benzoic acid]		75
Cc1cc(I)ccc1Nc1c(C(=O)O)cc(C(=O)NCCN2CCCCC2)c(F)c1F [Example 102]		25
